Test results from patent US20170100447A1, “COMPOSITIONS BASED ON PLANT EXTRACTS FOR INHIBITION OF THE 5-ALPHA REDUCTASE” (BIONAP S.R.L., priority 2014, published 2017).

System: immortalized human sebocytes (SZ95 sebocyte line)
Assay: MTT assay on testosterone-stimulated sebocytes
Format: cell-based
Conditions: testosterone 10^−6 M; 9 days
Protocol: The line of immortalized human sebocytes (SZ95 sebocyte line) has been cultivated in medium Sebomed (Biochrom) supplemented with fetal calf serum 10%, […] of recombining human epidermal growth factor, 1 mM Ca^2+ and 50 μg/ml gentamicin, in an atmosphere of CO2 5% at 37° C. The SZ95 cells have been subsequently plated on wells for the MTT assays and, after 24 hours of incubation in an atmosphere of CO2 5% at 37° C., have been treated with a new culture medium containing testosterone in a final concentration of 10^−6 M and the extracts, according to the indications reported in Table 1.
The cellular vitality has been assessed for each sample after 9 days of treatment through colorimetric MTT assay (according to the protocol as above described) and expressed in a percentage value with respect to control (0%) and to the treatment with testosterone (test=100%). Each experiment has been carried out in triplicate.

## C[C@]12CC[C@H]3[C@@H](CCC4=CC(=O)CC[C@@]43C)[C@@H]1CC[C@@H]2O [testosterone]
  effect of testosterone on cellular proliferation of SZ95 sebocytes: induces in these cells an increase of cellular proliferation
